#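 Compound exposure: 48 hours, 5 concentrations, 96-well plates. GI50 marks 50% less growth. At the TGI there is no net growth.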
# Key:
# Assay in all cases: NCI tumour cell line growth inhibition, 48 h
# A498 renal = system: A498 renal
# EKVX NSCLC = system: EKVX NSCLC
# HCC-2998 colon = system: HCC-2998 colon
# M14 melanoma = system: M14 melanoma
# NCI-H522 lung = system: NCI-H522 lung
# RPMI-8226 leukemia = system: RPMI-8226 leukemia
# RXF 393 renal = system: RXF 393 renal
# SF-268 CNS = system: SF-268 CNS
# SK-MEL-28 melanoma = system: SK-MEL-28 melanoma
# SK-MEL-2 melanoma = system: SK-MEL-2 melanoma
Structure (SMILES),GI50 (A498 renal) [µM],TGI (A498 renal) [µM],GI50 (EKVX NSCLC) [µM],TGI (EKVX NSCLC) [µM],GI50 (HCC-2998 colon) [µM],GI50 (M14 melanoma) [µM],TGI (M14 melanoma) [µM],GI50 (NCI-H522 lung) [µM],TGI (NCI-H522 lung) [µM],GI50 (RPMI-8226 leukemia) [µM],TGI (RPMI-8226 leukemia) [µM],GI50 (RXF 393 renal) [µM],TGI (RXF 393 renal) [µM],GI50 (SF-268 CNS) [µM],TGI (SF-268 CNS) [µM],GI50 (SK-MEL-28 melanoma) [µM],TGI (SK-MEL-28 melanoma) [µM],TGI (HCC-2998 colon) [µM],TGI (SK-MEL-2 melanoma) [µM],GI50 (SK-MEL-2 melanoma) [µM]
CC(=O)Nc1ccc(S(=O)(=O)NNC(=O)c2cccnc2Nc2ccc(Cl)cc2)cc1,18.4,76.1,48.9,> 100,8.38,11.5,> 100,6.44,> 100,28.6,> 100,37.3,> 100,22,> 100,23.4,> 100,–,–,–
C=C1C(=O)O[C@H]2C[C@@]3(C)[C@H](O)CCC(=C)[C@@H]3[C@@H](OC(C)=O)[C@H]12,–,44.2,–,38.1,–,–,25.2,–,4.13,–,68.7,–,14.7,–,> 52.2,–,> 65.9,30.3,37.6,–
C=C1C(=O)OC2/C=C(\C=O)CC/C=C(\C)C(O)C[C@@H]12 (some centres undefined),–,22.1,–,29.1,–,–,12.4,–,3.41,–,8.69,–,7.46,–,14.7,–,15.7,31.7,25,–
COc1ccc2c(c1)[n+]([O-])c(/C(C)=N/NC(=O)CC#N)c[n+]2[O-],–,> 100,–,> 100,–,–,> 100,–,> 100,–,> 100,–,> 100,–,> 100,–,> 100,> 100,> 100,–
COC(=O)C1=C(CS(=O)c2ccccc2[N+](=O)[O-])ON(C)C1c1ccccc1 (centres undefined),–,> 100,–,> 100,–,–,> 100,–,38,–,> 100,–,71.1,–,94.6,–,–,82.9,> 100,–
CC(C)Oc1cc(O)c2c(c1)OCC=C2CCC(=O)O,–,56.6,–,91.2,–,–,98.6,–,59.3,–,69.3,–,> 100,–,> 100,–,> 100,–,> 100,–
COc1ccc(-c2cn[nH]c2-c2cc(OC)c3c(c2)OCCO3)cc1,0.0298,0.419,–,–,0.673,0.0694,21.1,0.0243,0.164,0.373,25.2,0.219,2.77,1.03,> 74.2,2.12,46.3,20.4,16.1,0.0685
Cc1cc2c(=O)c3ccccc3[nH]c2c(C(=O)O)c1C,–,> 100,–,> 100,–,–,–,–,–,–,> 100,–,> 100,–,–,–,> 100,> 100,> 100,–
S=c1nc(-c2cccnc2)[nH][nH]1,–,> 100,–,–,–,–,> 100,–,> 1,–,> 100,–,> 100,–,> 100,–,> 100,> 100,> 100,–
CC(=O)O[C@@H]1C2C(=O)OC(=O)C2C2CCC[C@]23O[C@H]13 (some centres undefined),–,> 100,–,–,–,–,> 100,–,> 100,–,> 100,–,> 100,–,> 100,–,> 100,> 100,> 100,–
CN1C(=O)C(Cl)(C(Cl)(Cl)S(=O)(=O)O)C(=O)c2ccccc21 (centres undefined),–,> 100,–,> 100,–,–,> 100,–,> 100,–,> 100,–,> 100,–,> 100,–,> 100,> 100,–,–
Nc1ccc(S(=O)(=O)NCc2nccs2)cc1,–,33.4,–,40.7,–,–,37.2,–,35.6,–,56.1,–,> 100,–,46.3,–,51.2,–,37.9,–
C[N+]1(C)C/C(=C\c2ccncc2)C(=O)/C(=C/c2ccncc2)C1,–,> 100,–,> 100,–,–,> 100,–,42,–,> 100,–,> 100,–,84.7,–,> 100,> 100,–,–
CCOc1c(Cl)cc(CNC(C)C(O)c2ccccc2)cc1OC (centres undefined),0.244,26.4,–,–,16.6,–,–,20.7,43.3,25.5,57.7,16.4,52.1,42.1,> 100,15.3,30.8,32.7,39,21.4
COc1cc(Br)c(C=Nc2cccc3ccc(OS(=O)(=O)c4cccc([N+](=O)[O-])c4)cc23)cc1OC,–,> 100,–,> 100,–,–,–,–,> 100,–,> 100,–,43.5,–,> 100,–,> 100,> 100,> 100,–
O=C([CH-]C(=O)C(F)(F)F)c1ccccc1.O=C([CH-]C(=O)C(F)(F)F)c1ccccc1.O=C([CH-]C(=O)C(F)(F)F)c1ccccc1.O=C([CH-]C(=O)C(F)(F)F)c1ccccc1.[Eu+3].c1ccncc1,18.4,88.8,11.4,58.6,–,9.52,39.5,2.8,17.9,4.19,35.3,2.25,18.8,6.21,59.7,14.3,> 100,–,–,–
Cc1ccc(S(=O)(=O)N=Nc2c(O)[nH]c3c(Cl)cc(Cl)cc23)cc1,–,> 100,–,> 100,–,–,> 100,–,–,–,–,–,> 100,–,–,–,> 100,> 100,> 100,–
CN=C1SC(=Nc2ccc(N(C)C)cc2)N1C,–,91.9,–,72.7,–,–,> 100,–,59.3,–,> 100,–,–,–,> 100,–,> 100,> 100,76.6,–
COc1cc(Cn2c(-c3nonc3N)nc3ccccc32)ccc1C,0.142,1.66,–,–,1.42,0.426,34.8,0.243,0.735,0.493,> 100,0.304,3.35,0.825,> 100,2.91,> 62.7,> 100,9.97,0.417
CCN(CC)CCCC(C)Nc1c2ccc(C)cc2nc2ccc(OC)cc12 (centres undefined),0.863,13.8,2.35,16,–,1.58,3.18,–,–,1.75,5.05,1.44,2.88,2.53,13.5,1.87,3.35,–,8.75,1.89
Cc1ccc2c(c1)C(c1cccc3ccccc13)OC2=O (centres undefined),–,83.9,–,> 100,–,–,> 100,–,> 100,–,–,–,80.4,–,> 100,–,> 100,> 100,> 100,–
Cc1c2cc[n+](C)cc2c(C)c2c1[nH]c1ccc(O)c(OCC(F)(F)F)c12,–,32,–,20.1,–,–,15.7,–,3.55,–,16.8,–,–,–,1.1,–,16,46.4,17.6,–
Cc1c(Cl)cccc1NC(=O)CC1C(=O)Nc2ccccc2S1(=O)=O (centres undefined),–,28.9,–,70,–,–,29.3,–,–,–,32.3,–,28.9,–,38.2,–,38.6,33.4,45.9,–
Cc1cc(-c2nnc3n2CCCCC3)c(C)n1-c1ccc(Cl)c(Cl)c1,14,28,–,–,14,14.9,33.5,12.6,28.3,9.53,39.9,8.42,29.8,17.8,36.6,10.7,23.2,29.3,31,14.9
Fc1cccc(Cl)c1/C=N\N=C1c2ccccc2-c2ccccc21,–,> 100,–,> 100,–,–,> 100,–,> 100,–,> 100,–,> 100,–,> 100,–,> 100,–,> 100,–
CC(C)[C@H]1C(=O)N[C@@H](CCCN=C(N)N)C(=O)NCC(=O)N[C@@H](CC(=O)O)C(=O)N[C@H](Cc2ccccc2)C(=O)N1C,0.182,1.05,–,–,> 100,> 100,> 100,2.32,5.7,> 100,> 100,2.63,> 100,7.07,> 100,31.6,> 100,> 100,5.78,1.35
O=C(O)CSc1ncccc1[N+](=O)[O-],–,> 100,–,> 100,–,–,> 100,–,> 100,–,–,–,> 100,–,> 100,–,> 100,–,> 100,–
CCOC(=O)[C@H]1Nc2ccc(OC)cc2C2c3ccccc3CC21 (some centres undefined),–,> 100,–,–,–,–,> 100,–,> 100,–,> 100,–,> 100,–,> 100,–,> 100,> 100,> 100,–
C1=CC=C2NCCOCCNC3=CC=CC=CC3=NCCOCCN=C2C=C1,–,> 100,–,> 100,–,–,41.6,–,> 100,–,> 100,–,–,–,> 100,–,> 100,> 100,> 100,–

# Reference: PubChem BioAssay (NCI)
